The values below come from ChEMBL document CHEMBL2375331, “Daphnane-type diterpenes with inhibitory activities against human cancer cell lines from Daphne genkwa” (Bioorg Med Chem Lett, 2013).

Molecules are shown by their SMILES.

Format in all cases: functional, cell-based
One experiment has as its system U-937. The experiment in a line: Cytotoxicity against human U937 cells after 48 hrs by MTT assay. The following applies: U-937, 48 h. A general note: Tetrazolium assays rely on reduction of a dye to a coloured formazan, in cell work by metabolically active cells.
For the next experiment, the system named is HCT-116. The experiment in a line: Cytotoxicity against human HCT116 cells after 48 hrs by MTT assay. The following applies: HCT-116, 48 h.
The next experiment relates to HL-60. The experiment in a line: Cytotoxicity against human HL60 cells after 48 hrs by MTT assay. The following applies: HL-60, 48 h.
The next experiment relates to A549. The experiment in a line: Cytotoxicity against human A549 cells after 48 hrs by MTT assay. To be noted: A549, 48 h.
The subject of a further experiment is HeLa. The experiment in a line: Cytotoxicity against human HeLa cells after 48 hrs by MTT assay.
In a further experiment the test system is MCF7. The experiment in a line: Cytotoxicity against human MCF7 cells after 48 hrs by MTT assay. The following applies: MCF7, 48 h.
A further experiment deals with K562. The experiment in a line: Cytotoxicity against human K562 cells after 48 hrs by MTT assay. To be noted: K562, 48 h.
A further experiment relates to HT-1080. Briefly: Cytotoxicity against human HT1080 cells after 48 hrs by MTT assay. The following applies: HT-1080, 48 h.
Experiment [1] is described as follows: Cytotoxicity against human A375-S2 cells after 48 hrs by MTT assay. To be noted: A375-S2, 48 h.
Another experiment deals with HepG2. Briefly: Cytotoxicity against human HepG2 cells after 48 hrs by MTT assay. To be noted: HepG2, 48 h.

By IC50 is commonly meant the concentration needed to halve the response being measured. A lower IC50 goes with higher potency. Turning to `C=C(C)[C@@]12OC3(/C=C/C=C\CCCCC)O[C@@H]1[C@@H]1[C@@H]4O[C@]4(CO)[C@@H](O)[C@]4(O)C(=O)C(C)=C[C@H]4[C@@]1(O3)[C@H](C)[C@H]2OC(C)=O` [ISOYUANHUADINE], the IC50 is 17.4 µM in the experiment with U-937; 32.3 µM with HCT-116; 17.7 µM in the experiment on HL-60; 24.1 µM in the experiment on A549; 0.64 µM with HeLa; 23.4 µM in the experiment on MCF7. The IC50 in the experiment with K562 was found to be 17.5 µM; in the experiment on HT-1080 it was 14.9 µM; in experiment [1], 21.5 µM; with HepG2 it was 30 µM.
As for `C=C(C)[C@]12C[C@@H](C)[C@@]34OC(c5ccccc5)(O[C@@H]1[C@@H]3[C@@H]1O[C@]1(CO)[C@@H](O)[C@@]1(O)[C@H]4C[C@H](C)[C@@H]1O)O2` [ORTHOBENZOATE], the IC50 with U-937 is more than 50 µM; in the experiment with HCT-116 it was 49.9 µM; with HL-60 it was more than 50 µM; in the experiment on A549, more than 50 µM; with HeLa it was 31.7 µM; in the experiment with MCF7, 12.4 µM. Further, the IC50 in the experiment on K562 was 42.3 µM; with HT-1080, 24.5 µM; in experiment [1] it was 47.2 µM; with HepG2 it was 48.9 µM.
On to `C=C(C)[C@]12C[C@@H](C)[C@@]34OC5(CCCCCCC[C@H](C)[C@H]6[C@H](C)[C@H](OC(=O)c7ccccc7)[C@@](O)([C@H](O)[C@@]7(CO)O[C@H]7[C@H]3[C@H]1O5)[C@@H]64)O2` [PIMELEA FACTOR P2], for which the IC50 in the experiment on U-937 is 16.7 µM; with HCT-116, 19.6 µM; in the experiment on HL-60, 17.9 µM; with A549, 17 µM; in the experiment on HeLa, 18.3 µM; in the experiment with MCF7 it was more than 50 µM. For the same molecule, the IC50 came to 25.2 µM with K562, 13.2 µM in the experiment on HT-1080, 25.7 µM in experiment [1] and 19.1 µM in the experiment with HepG2.
With `C=C(C)[C@]12C[C@@H](C)[C@@]34O[C@](CCCCCCCCC)(O[C@@H]1[C@@H]3[C@@H]1O[C@]1(CO)[C@@H](O)[C@]1(O)C(=O)C(C)=C[C@H]14)O2` [SIMPLEXIN], the IC50 was more than 50 µM in the experiment on U-937; more than 50 µM in the experiment on HCT-116; more than 50 µM in the experiment with HL-60; 27 µM in the experiment with A549; 21.7 µM in the experiment with HeLa; 25.4 µM in the experiment on MCF7. The IC50 with K562 is more than 50 µM; in the experiment on HT-1080, less than 0.1 µM; in experiment [1], 10.7 µM; in the experiment with HepG2, 38.8 µM.
`C=C(C)[C@]12C[C@@H](C)[C@@]34O[C@@]5(CCCCCCC[C@@H](C)[C@H]6[C@H](C)C(=O)[C@@](O)([C@H](O)[C@@]7(CO)O[C@H]7[C@H]3[C@H]1O5)[C@@H]64)O2` [WIKSTROELIDE E]: the IC50 in the experiment on U-937 is 19.5 µM; in the experiment with HCT-116, 29.9 µM; in the experiment with HL-60, 22.1 µM; in the experiment with A549, 19.3 µM; in the experiment on HeLa, 17.1 µM; in the experiment with MCF7 it was more than 50 µM. Also, the IC50 in the experiment on K562 stood at 24 µM; with HT-1080, 15.1 µM; in [1] it was 29 µM; in the experiment on HepG2, 11.4 µM.
Take `C=C(C)[C@@]12O[C@@]3(/C=C/C=C/CCCCC)O[C@@H]1[C@@H]1[C@@H]4O[C@]4(CO)[C@@H](O)[C@]4(O)C(=O)C(C)=C[C@H]4[C@@]1(O3)[C@H](C)[C@H]2OC(C)=O` [YUANHUADINE]: the IC50 in the experiment with U-937 is 14.7 µM; in the experiment with HCT-116, 32.6 µM; in the experiment with HL-60, 30.1 µM; in the experiment on A549, more than 50 µM; with HeLa, 17.1 µM; in the experiment with MCF7 it was 4.11 µM. The IC50 in the experiment on K562 is 22.2 µM; with HT-1080 it was less than 0.1 µM; in [1], 15.8 µM; in the experiment on HepG2, 26.3 µM.
In the case of `C=C(C)[C@@]12OC3(c4ccccc4)O[C@@H]1[C@@H]1[C@H](O)[C@](O)(CO)[C@@H](O)[C@]4(O)C(=O)C(C)=C[C@H]4[C@@]1(O3)[C@H](C)[C@H]2OC(=O)c1ccccc1` [YUANHUAOATE B], the IC50 with U-937 worked out at 14.4 µM; in the experiment with HCT-116, 26.5 µM; with HL-60 it was 27 µM; in the experiment with A549 it was 15.9 µM; in the experiment on HeLa it was 21 µM; in the experiment on MCF7, 0.37 µM. In addition, the IC50 was determined as 21.3 µM with K562, 0.59 µM in the experiment on HT-1080, 23.3 µM in experiment [1] and 25.1 µM with HepG2.
In the case of `C=C(C)[C@@]1(O)[C@H](OC(=O)/C=C/C=C/CCCCC)[C@@H]2[C@@H]3O[C@]3(CO)[C@@H](O)[C@]3(O)C(=O)C(C)=C[C@H]3[C@@]2(O)[C@H](C)[C@H]1OC(=O)c1ccccc1` [YUANHUAOATE E], the IC50 was 11.6 µM in the experiment with U-937; 16.4 µM in the experiment on HCT-116; 18.5 µM in the experiment on HL-60; 13.3 µM with A549; 16.7 µM with HeLa; more than 50 µM in the experiment on MCF7. For the same molecule, the IC50 in the experiment with K562 is 29 µM; with HT-1080 it was 18.4 µM; in [1] it was 26.5 µM; with HepG2 it was 11.1 µM.
